Read-outs that look alike come from different tables or passages of the source.
Legend:
[1] = target: T1, HiBiT-BRM fusion protein in stable HeLa cell line (Homo sapiens, UniProt P51531); experiment: HiBiT-BRM cell-based degradation assay (Nano-Glo HiBiT Lytic Detection, 24 h); design: DC50: scale not given here; details: HeLa HiBiT-BRM cells; for DC50: read-out: BRM HiBit Degradation IC50; for BRM HiBit Degradation Maximum (%): top dose 30 μM
T1 construct: expressed in transfected cells
Protocol: (§1) Procedure: A stable HeLa cell line expressing HiBiT-BRM was generated. On day 0, 5000 cells were seeded in 40 μL of media into each well of 384-well cell culture plates. On day 1, cells were treated with 120 nL DMSO or 120 nL of 3-fold serially DMSO-diluted compounds (10 points in duplicate with 30 μM as final top dose). Subsequently plates were incubated for 24 h in a standard tissue culture incubator and equilibrated at room temperature for 15 minutes. Nano-Glo HiBiT Lytic Detection System (Promega N3050) reagent was freshly prepared and 20 ul was added to each well. Upon addition of this LgBit-containing reagent, the HiBiT and LgBiT proteins associate to form the luminescent NanoBiT luciferase. The plates were shaken for 10 minutes at room temperature and the bioluminescence read using an EnVision plate reader (PerkinElmer).
The degradation % was calculated using the following formula: % degradation=100%−100%×(Lumsample−LumLC)/(LumHC−LumLC). DMSO treated cells are employed as High Control (HC) and 2 μM of a known BRM/BRG1 degrader standard treated cells are employed as Low Control (LC).

[2] = target: T2, HiBit-BRG1 fusion protein in stable HeLa cell line expressing HiBit-BRG1 and LgBit (Homo sapiens, UniProt P51532); experiment: HiBiT-BRG1 cell-based degradation assay (Nano-Glo HiBiT, 24 h); details: HeLa HiBit-BRG1/LgBit cells; for DC50: read-out: BRMG1 HiBit Degradation IC50; for Dmax: top dose 30 μM, read-out: BRG1 HiBit Degradation Maximum (%)
T2 construct: expressed in transfected cells
T2 sequence (P51532 whole entry, the tested form may be a part): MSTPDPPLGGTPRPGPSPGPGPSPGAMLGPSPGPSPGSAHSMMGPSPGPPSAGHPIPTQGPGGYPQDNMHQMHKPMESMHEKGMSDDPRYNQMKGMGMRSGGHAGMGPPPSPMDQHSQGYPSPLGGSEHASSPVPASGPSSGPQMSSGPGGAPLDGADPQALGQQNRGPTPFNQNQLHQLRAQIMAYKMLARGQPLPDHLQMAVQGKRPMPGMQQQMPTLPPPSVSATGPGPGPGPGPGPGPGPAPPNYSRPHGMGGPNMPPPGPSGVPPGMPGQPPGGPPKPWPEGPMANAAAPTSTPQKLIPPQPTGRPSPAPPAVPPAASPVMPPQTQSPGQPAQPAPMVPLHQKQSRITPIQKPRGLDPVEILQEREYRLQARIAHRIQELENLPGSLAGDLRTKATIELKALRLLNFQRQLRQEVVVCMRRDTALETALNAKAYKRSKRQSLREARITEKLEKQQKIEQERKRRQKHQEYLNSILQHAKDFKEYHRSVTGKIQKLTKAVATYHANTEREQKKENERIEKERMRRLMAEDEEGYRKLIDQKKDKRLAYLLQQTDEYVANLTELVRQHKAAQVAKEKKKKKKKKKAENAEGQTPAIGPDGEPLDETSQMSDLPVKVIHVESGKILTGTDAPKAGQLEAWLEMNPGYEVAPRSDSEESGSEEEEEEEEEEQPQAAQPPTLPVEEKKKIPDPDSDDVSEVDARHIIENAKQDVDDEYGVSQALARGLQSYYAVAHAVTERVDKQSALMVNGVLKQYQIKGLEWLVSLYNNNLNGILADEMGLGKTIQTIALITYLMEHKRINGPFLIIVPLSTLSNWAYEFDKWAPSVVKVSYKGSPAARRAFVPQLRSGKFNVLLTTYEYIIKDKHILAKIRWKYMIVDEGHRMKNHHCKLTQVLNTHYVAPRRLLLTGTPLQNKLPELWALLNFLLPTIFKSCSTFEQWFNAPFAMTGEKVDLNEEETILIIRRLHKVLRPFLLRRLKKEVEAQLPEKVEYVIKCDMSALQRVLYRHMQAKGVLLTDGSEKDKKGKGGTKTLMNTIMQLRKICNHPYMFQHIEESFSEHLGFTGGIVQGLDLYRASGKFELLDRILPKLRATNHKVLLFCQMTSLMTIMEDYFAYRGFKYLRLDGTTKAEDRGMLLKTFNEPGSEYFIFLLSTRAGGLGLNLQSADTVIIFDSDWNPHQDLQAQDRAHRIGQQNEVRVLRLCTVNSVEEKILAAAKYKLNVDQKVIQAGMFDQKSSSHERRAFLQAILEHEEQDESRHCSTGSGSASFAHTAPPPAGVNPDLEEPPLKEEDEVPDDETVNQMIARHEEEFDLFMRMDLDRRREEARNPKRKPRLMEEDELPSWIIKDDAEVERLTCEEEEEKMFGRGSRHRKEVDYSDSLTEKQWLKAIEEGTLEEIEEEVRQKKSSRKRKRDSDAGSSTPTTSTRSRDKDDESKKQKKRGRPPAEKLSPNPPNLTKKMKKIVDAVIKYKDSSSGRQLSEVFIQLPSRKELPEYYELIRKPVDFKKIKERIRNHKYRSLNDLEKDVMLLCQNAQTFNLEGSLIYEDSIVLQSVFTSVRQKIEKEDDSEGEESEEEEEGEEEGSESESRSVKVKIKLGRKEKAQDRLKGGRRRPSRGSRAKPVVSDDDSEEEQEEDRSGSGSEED
Protocol: as §1, with “On day 1, cells were treated with 120 nL DMSO or 120 nL of 3-fold serially DMSO-diluted compounds (10 points in duplicate with 30 μM as final top dose).” left out, “(PerkinElmer). For measurement of BRG1 degradation, a stable HeLa cell line expressing HiBit-BRG1 and LgBit was generated. The same protocol as above was then followed. The degradation % was calculated using the following formula: % degradation=100%−100%×(Lumsample−LumLC)/(LumHC−LumLC). DMSO treated cells are employed as High Control (HC) and 2 μM of a known BRM/BRG1 degrader standard treated cells are employed as Low Control (LC).” for “(PerkinElmer).”

T1 sequence (P51531 whole entry, the tested form may be a part): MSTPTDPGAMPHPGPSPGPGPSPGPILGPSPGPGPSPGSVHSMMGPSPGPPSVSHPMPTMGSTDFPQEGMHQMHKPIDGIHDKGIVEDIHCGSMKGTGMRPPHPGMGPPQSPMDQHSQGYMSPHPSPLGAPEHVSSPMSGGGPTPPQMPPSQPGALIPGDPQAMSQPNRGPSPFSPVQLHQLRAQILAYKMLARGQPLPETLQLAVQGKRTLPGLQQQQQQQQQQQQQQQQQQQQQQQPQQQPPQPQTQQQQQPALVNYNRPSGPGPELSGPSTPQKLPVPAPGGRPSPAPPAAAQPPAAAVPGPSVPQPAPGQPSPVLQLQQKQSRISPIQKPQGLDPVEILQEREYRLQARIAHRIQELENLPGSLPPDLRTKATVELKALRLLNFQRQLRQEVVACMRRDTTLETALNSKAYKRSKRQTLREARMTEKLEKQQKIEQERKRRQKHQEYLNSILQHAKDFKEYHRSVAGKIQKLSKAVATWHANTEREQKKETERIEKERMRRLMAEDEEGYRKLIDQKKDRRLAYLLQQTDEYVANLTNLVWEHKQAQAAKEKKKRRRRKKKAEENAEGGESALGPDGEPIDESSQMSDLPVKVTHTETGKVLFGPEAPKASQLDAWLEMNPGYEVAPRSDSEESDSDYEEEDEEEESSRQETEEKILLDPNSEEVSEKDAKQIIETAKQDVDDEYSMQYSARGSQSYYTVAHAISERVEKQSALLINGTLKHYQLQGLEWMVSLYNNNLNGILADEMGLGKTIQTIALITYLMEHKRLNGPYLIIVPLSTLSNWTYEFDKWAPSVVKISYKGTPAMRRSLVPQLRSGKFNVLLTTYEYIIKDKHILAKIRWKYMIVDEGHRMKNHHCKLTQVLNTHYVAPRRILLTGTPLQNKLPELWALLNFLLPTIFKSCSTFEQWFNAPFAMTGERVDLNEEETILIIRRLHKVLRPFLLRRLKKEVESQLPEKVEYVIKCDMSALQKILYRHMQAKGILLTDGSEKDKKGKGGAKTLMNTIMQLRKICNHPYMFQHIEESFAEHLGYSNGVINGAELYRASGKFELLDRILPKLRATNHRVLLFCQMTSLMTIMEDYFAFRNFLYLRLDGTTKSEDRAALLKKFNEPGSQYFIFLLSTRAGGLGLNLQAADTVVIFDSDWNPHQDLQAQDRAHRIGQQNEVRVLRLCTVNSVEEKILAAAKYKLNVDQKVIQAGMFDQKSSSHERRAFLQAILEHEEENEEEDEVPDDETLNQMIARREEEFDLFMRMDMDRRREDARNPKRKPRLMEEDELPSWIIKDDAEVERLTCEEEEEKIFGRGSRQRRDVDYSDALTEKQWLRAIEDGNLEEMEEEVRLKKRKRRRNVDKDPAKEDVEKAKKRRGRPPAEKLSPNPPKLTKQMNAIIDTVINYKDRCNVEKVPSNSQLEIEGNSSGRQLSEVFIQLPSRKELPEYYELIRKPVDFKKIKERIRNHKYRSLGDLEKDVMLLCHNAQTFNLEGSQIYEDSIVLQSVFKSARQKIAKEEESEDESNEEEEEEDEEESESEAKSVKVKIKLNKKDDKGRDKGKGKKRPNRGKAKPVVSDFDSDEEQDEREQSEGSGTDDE

DC50 [1] | DC50 [2] | Dmax [2] | DC50 ([1]; given as a number) | SMILES | BRM HiBit Degradation Maximum (%) [1]
> 100 nM |  | < 50% |  | Cc1ncsc1-c1ccc([C@H](C)NC(=O)[C@@H]2C[C@@H](O)CN2C(=O)[C@H](c2cc(N3CC4(CC(c5ccc6cc(-c7ccccc7O)nnc6c5)C4)C3)no2)C(C)C)cc1 [Compound 33] | A (“A” indicates maximum degradation ≥75%)
< 10 nM | > 10 nM | > 75% |  | Cc1ncsc1-c1ccc([C@H](C)NC(=O)[C@@H]2C[C@@H](O)CN2C(=O)[C@@H](c2cc(N3CC4(CC(c5ccc6cc(-c7ccccc7O)nnc6c5)C4)C3)no2)C(C)C)cc1 [Compound 34] | A (“A” indicates maximum degradation ≥75%)
> 100 nM |  | < 50% |  | Cc1ncsc1-c1ccc([C@H](C)NC(=O)[C@@H]2C[C@@H](O)CN2C(=O)[C@H](c2cc(-c3cnc(N4CC(c5cc(Cl)c6cc(-c7ccccc7O)nnc6c5)C4)nc3)no2)C(C)C)cc1 [Compound 35] | B (“B” indicates maximum degradation ≥50%)
> 10 nM |  | < 50% |  | Cc1ncsc1-c1ccc([C@H](C)NC(=O)[C@@H]2C[C@@H](O)CN2C(=O)[C@@H](c2cc(-c3cnc(N4CC(c5cc(Cl)c6cc(-c7ccccc7O)nnc6c5)C4)nc3)no2)C(C)C)cc1 [Compound 36] | B (“B” indicates maximum degradation ≥50%)
 |  | < 50% |  | Cc1ncsc1-c1ccc([C@H](C)NC(=O)[C@@H]2C[C@@H](O)CN2C(=O)[C@H](c2cc(-c3ccnc(N4CCC(c5ccc6nnc(-c7ccccc7O)cc6c5)CC4)n3)no2)C(C)C)cc1 [Compound 37] | C (“C” indicates maximum degradation <50%)
> 100 nM |  | < 50% |  | Cc1ncsc1-c1ccc([C@H](C)NC(=O)[C@@H]2C[C@@H](O)CN2C(=O)[C@@H](c2cc(-c3ccnc(N4CCC(c5ccc6nnc(-c7ccccc7O)cc6c5)CC4)n3)no2)C(C)C)cc1 [Compound 38] | A (“A” indicates maximum degradation ≥75%)
 |  | < 50% |  | Cc1ncsc1-c1ccc([C@H](C)NC(=O)[C@@H]2C[C@@H](O)CN2C(=O)[C@H](c2cc(-c3cnc(N4CCN(c5ccc6cc(-c7ccccc7O)nnc6c5)CC4)nc3)no2)C(C)C)cc1 [Compound 39] | C (“C” indicates maximum degradation <50%)
< 10 nM |  | < 50% |  | Cc1ncsc1-c1ccc([C@H](C)NC(=O)[C@@H]2C[C@@H](O)CN2C(=O)[C@@H](c2cc(-c3cnc(N4CCN(c5ccc6cc(-c7ccccc7O)nnc6c5)CC4)nc3)no2)C(C)C)cc1 [Compound 40] | A (“A” indicates maximum degradation ≥75%)
 |  | < 50% |  | Cc1ncsc1-c1ccc([C@H](C)NC(=O)[C@@H]2C[C@@H](O)CN2C(=O)[C@H](c2cc(-c3cnc(N4CCC(c5ccc6nnc(-c7ccccc7O)cc6c5)CC4)nc3)no2)C(C)C)cc1 [Compound 41] | C (“C” indicates maximum degradation <50%)

The remaining lines, values behind:

SMILES | DC50 [1] | DC50 [2] | Dmax [2] | DC50 ([1]; given as a number) | BRM HiBit Degradation Maximum (%) [1]
Cc1ncsc1-c1ccc([C@H](C)NC(=O)[C@@H]2C[C@@H](O)CN2C(=O)[C@@H](c2cc(-c3cnc(N4CC5(CC(c6ccc7cc(-c8ccccc8O)nnc7c6)C5)C4)nc3)no2)C(C)C)cc1 [Compound 18] | < 10 nM | > 10 nM | > 50% |  | A (“A” indicates maximum degradation ≥75%)
Cc1ncsc1-c1ccc([C@H](C)NC(=O)[C@@H]2C[C@@H](O)CN2C(=O)[C@H](c2cc(-c3cnc(N4CC[C@@H](c5ccc6cc(-c7ccccc7O)nnc6c5)C4)nc3)no2)C(C)C)cc1 [Compound 19] | > 100 nM |  | < 50% |  | B (“B” indicates maximum degradation ≥50%)
Cc1ncsc1-c1ccc([C@H](C)NC(=O)[C@@H]2C[C@@H](O)CN2C(=O)[C@@H](c2cc(-c3cnc(N4CC[C@@H](c5ccc6cc(-c7ccccc7O)nnc6c5)C4)nc3)no2)C(C)C)cc1 [Compound 20] | < 10 nM |  | < 50% |  | A (“A” indicates maximum degradation ≥75%)
Cc1ncsc1-c1ccc([C@H](C)NC(=O)[C@@H]2C[C@@H](O)CN2C(=O)[C@H](c2cc(-c3cnc(N4CC[C@H](c5ccc6cc(-c7ccccc7O)nnc6c5)C4)nc3)no2)C(C)C)cc1 [Compound 21] |  |  | < 50% |  | C (“C” indicates maximum degradation <50%)
Cc1ncsc1-c1ccc([C@H](C)NC(=O)[C@@H]2C[C@@H](O)CN2C(=O)[C@@H](c2cc(-c3cnc(N4CC[C@H](c5ccc6cc(-c7ccccc7O)nnc6c5)C4)nc3)no2)C(C)C)cc1 [Compound 22] | < 10 nM | < 10 nM | > 75% |  | A (“A” indicates maximum degradation ≥75%)
COc1cc2nnc(-c3ccccc3O)cc2cc1C1CN(c2ncc(-c3cc([C@@H](C(=O)N4C[C@H](O)C[C@H]4C(=O)N[C@@H](C)c4ccc(-c5scnc5C)cc4)C(C)C)on3)cn2)C1 [Compound 23] | > 10 nM |  | < 50% |  | A (“A” indicates maximum degradation ≥75%)
COc1cc2nnc(-c3ccccc3O)cc2cc1C1CN(c2ncc(-c3cc([C@H](C(=O)N4C[C@H](O)C[C@H]4C(=O)N[C@@H](C)c4ccc(-c5scnc5C)cc4)C(C)C)on3)cn2)C1 [Compound 24] | < 10 nM | < 10 nM | > 75% |  | A (“A” indicates maximum degradation ≥75%)
Cc1ncsc1-c1ccc([C@H](C)NC(=O)[C@@H]2C[C@@H](O)CN2C(=O)[C@H](c2cc(N3CCC4(CC3)CC(c3ccc5cc(-c6ccccc6O)nnc5c3)C4)no2)C(C)C)cc1 [Compound 25] | > 100 nM |  | < 50% |  | B (“B” indicates maximum degradation ≥50%)
Cc1ncsc1-c1ccc([C@H](C)NC(=O)[C@@H]2C[C@@H](O)CN2C(=O)[C@@H](c2cc(N3CCC4(CC3)CC(c3ccc5cc(-c6ccccc6O)nnc5c3)C4)no2)C(C)C)cc1 [Compound 26] | < 10 nM | > 10 nM | > 75% |  | A (“A” indicates maximum degradation ≥75%)
Cc1ncsc1-c1ccc([C@H](C)NC(=O)[C@@H]2C[C@@H](O)CN2C(=O)[C@H](c2cc(-c3cnc(N4CC(c5cc(F)c6cc(-c7ccccc7O)nnc6c5)C4)nc3)no2)C(C)C)cc1 [Compound 27] | > 100 nM |  | < 50% |  | A (“A” indicates maximum degradation ≥75%)
Cc1ncsc1-c1ccc([C@H](C)NC(=O)[C@@H]2C[C@@H](O)CN2C(=O)[C@@H](c2cc(-c3cnc(N4CC(c5cc(F)c6cc(-c7ccccc7O)nnc6c5)C4)nc3)no2)C(C)C)cc1 [Compound 28] | > 10 nM |  | < 50% |  | A (“A” indicates maximum degradation ≥75%)
Cc1ncsc1-c1ccc([C@H](C)NC(=O)[C@@H]2C[C@@H](O)CN2C(=O)[C@H](c2cc(-c3cnc(N4CC(c5cc6cc(-c7ccccc7O)nnc6cc5Cl)C4)nc3)no2)C(C)C)cc1 [Compound 29] | > 100 nM |  | < 50% |  | A (“A” indicates maximum degradation ≥75%)
Cc1ncsc1-c1ccc([C@H](C)NC(=O)[C@@H]2C[C@@H](O)CN2C(=O)[C@@H](c2cc(-c3cnc(N4CC(c5cc6cc(-c7ccccc7O)nnc6cc5Cl)C4)nc3)no2)C(C)C)cc1 [Compound 30] | < 10 nM | > 10 nM | > 75% |  | A (“A” indicates maximum degradation ≥75%)
Cc1ncsc1-c1ccc([C@H](C)NC(=O)[C@@H]2C[C@@H](O)CN2C(=O)[C@H](c2cc(-c3cnc(N4CC(c5cc6nnc(-c7ccccc7O)cc6cc5Cl)C4)nc3)no2)C(C)C)cc1 [Compound 31] |  |  | < 50% | 243 nM | A (“A” indicates maximum degradation ≥75%)
Cc1ncsc1-c1ccc([C@H](C)NC(=O)[C@@H]2C[C@@H](O)CN2C(=O)[C@@H](c2cc(-c3cnc(N4CC(c5cc6nnc(-c7ccccc7O)cc6cc5Cl)C4)nc3)no2)C(C)C)cc1 [Compound 32] | > 10 nM |  | < 50% |  | B (“B” indicates maximum degradation ≥50%)
